Data reported in patent US20100299778A1, “NUCLEOTIDE SEQUENCE ENCODING ARTEMISINIC ALDEHYDE DOUBLE BOND REDUCTASE, ARTEMISINIC ALDEHYDE DOUBLE BOND REDUCTASE AND USES THEREOF” (National Research Council of Canada, priority 2007, published 2010).
“Also recorded” adds a separate entry of the source.

Assays:
[1] = biological target: T1, recombinant AaDBR2 (artemisinic aldehyde double bond reductase) (Artemisia annua, UniProt C5H429, A226G/L231G/N16K); assay: In vitro enzyme assays of recombinant AaDBR2 with potential substrates, GC/MS analysis; format: biochemical; conditions: for activity of AaDBR2 on the substance as substrate: tested as potential substrate, with NADPH, GC/MS
T1 construct: This ORF encodes a 415-amino acid protein with a predicted molecular mass of 45.6 kDa; made in house; host or cells: E. coli Rosetta 2(DE3)
Method: The purified recombinant His-tagged AaDBR2 protein was assayed with artemisinic aldehyde, followed by gas chromatography/mass spectrometry analysis. Enzyme reactions were initiated by adding the 0.4 mM artemisinic aldehyde to 300 μL reaction mixture containing 50 mM Tris-HCl (pH 8.0), 1 mM NADPH, 2 mM DTT and 2.0 μg of AaDBR2. Negative controls were carried out with boiled proteins, without NADPH. Reactions were allowed to proceed for 30 minutes at 30° C. with shaking, stopped by adding 15 μL acetic acid and extracted with 100 μL ethyl acetate. The ethyl acetate extracts were pooled and partially evaporated prior to GC-MS analysis. The reaction products were confirmed by comparing GC retention time and MS data with those of synthetic (11R)-dihydroartemisinic aldehyde. For quantification, octadecane was used as an internal standard.
(§1) For comparison of the catalytic properties of AaDBR2 against other substrates, reaction mixtures were pre-warmed to 30° C., and reactions were initiated by addition of AaDBR2. The pH optimum of the purified AaDBR2 was determined to be 7.5 in assay that included one of three 50 mM buffers (MES, HEPES, and Tris-HCl) adjusted to between pH 5.5 and 9.0 in 0.5-unit intervals and 0.5 mM artemisinic aldehyde and 0.48 μg of purified recombinant AaDBR2. Apparent kinetic parameters were determined under conditions that limited conversion to less than 10% as follows. Concentrations of artemisinic aldehyde (6-250 μM, 0.24 μg of AaDBR2, 2 min), 2-cyclohexen-1-one (80-10,000 μM, 0.48 μg of AaDBR2, 10 min), and (+)-carvone (20-5000 μM, 0.48 μg AaDBR2, 10 min) were varied in the presence of 1 mM NADPH. To assess cofactor specificity, concentrations of NADPH (10-640 μM, 0.48 μg of AaDBR2, 2 min) and NADH (0.2-13 mM, 1.9 μg of AaDBR2, 2 min) were varied in the presence of 0.5 mM artemisinic aldehyde. The ethyl acetate extracts from triplicate reaction mixtures were directly analyzed by GC/MS. Octadecane was used as an internal standard to quantify the products formed from the reactions using response factors determined using standards for each enzyme product. Km and kcat values were determined by nonlinear regression analysis using GraphPad™ software (GraphPad™ Software Inc., San Diego, Calif.).

[2] = biological target: T1, recombinant AaDBR2 (artemisinic aldehyde double bond reductase); assay: Apparent kinetic parameters of purified recombinant AaDBR2; format: biochemical
Method: as §1

Plasmodium falciparum = conditions: more active than artesunate; cited from earlier work
[3] = cofactor varied in the presence of 0.5 mM artemisinic aldehyde
[4] = substrate varied in the presence of 1 mM NADPH, 30° C.

T1 sequence (C5H429 other isoform, or with tags, fused parts or gaps N16K/A226G/L231G): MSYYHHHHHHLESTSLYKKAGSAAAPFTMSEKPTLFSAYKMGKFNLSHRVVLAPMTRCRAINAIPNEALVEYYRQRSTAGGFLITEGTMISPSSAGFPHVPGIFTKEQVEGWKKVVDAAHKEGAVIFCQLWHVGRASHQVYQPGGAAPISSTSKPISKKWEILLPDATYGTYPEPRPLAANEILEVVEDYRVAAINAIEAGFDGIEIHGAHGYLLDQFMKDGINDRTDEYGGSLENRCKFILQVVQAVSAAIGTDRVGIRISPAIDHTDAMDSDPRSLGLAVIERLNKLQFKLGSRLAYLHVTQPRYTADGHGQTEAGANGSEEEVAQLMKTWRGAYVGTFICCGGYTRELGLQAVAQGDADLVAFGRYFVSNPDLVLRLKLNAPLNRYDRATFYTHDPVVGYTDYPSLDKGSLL

Compound | activity of AaDBR2 on the substance as substrate [1] | also measured
CC1=CC[C@@H]2C[C@H]1C2(C)C [(+)-α-pinene] | No activity was detected | –
NC(=O)C1=CN([C@@H]2O[C@H](COP(=O)(O)OP(=O)(O)OC[C@H]3O[C@@H](n4cnc5c(N)ncnc54)[C@H](OP(=O)(O)O)[C@@H]3O)[C@@H](O)[C@H]2O)C=CC1 [NADPH] | – | Km [2, 3]: 95 µM; kcat [2, 3]: 2.5 s⁻¹
NC(=O)C1=CN([C@@H]2O[C@H](COP(=O)(O)OP(=O)(O)OC[C@H]3O[C@@H](n4cnc5c(N)ncnc54)[C@H](O)[C@@H]3O)[C@@H](O)[C@H]2O)C=CC1 [NADH] | – | Km [2, 3]: 770 µM; kcat [2, 3]: 1.3 s⁻¹; enzyme activity in the presence of the cofactor ([1]; preliminary experiments): active
O=C1C=CCCC1 [2-cyclohexen-1-one] | has activity | –
C=C1C(=O)O[C@@]23[C@H]1CC[C@@H](C)[C@@H]2CC[C@@]1(C)O[C@@H]31 [arteannuin B, Arteannuin B] | No activity was detected | –
COc1cc(/C=C/C=O)ccc1O [coniferyl aldehyde] | No activity was detected | –
C=C(CO)[C@@H]1CC[C@@H](C)[C@@H]2CCC(C)=C[C@@H]21 [artemisinic alcohol, Artemisinic alcohol] | No activity was detected | –
CC(C)=C1CC[C@@H](C)CC1=O [(+)-pulegone] | No activity was detected | –
C=C(C(=O)O)[C@@H]1CC[C@@H](C)[C@@H]2CCC(C)=C[C@@H]21 [artemisinic acid] | No activity was detected | –
C=C1C(=O)CC2(C(C)C)CC12 (stereo not drawn) [sabinone, Sabinone] | No activity was detected | –
C[C@H]1[C@H](N2CCS(=O)(=O)CC2)O[C@@H]2O[C@@]3(C)CC[C@H]4[C@H](C)CC[C@@H]1[C@@]24OO3 [Artemisone] | – | activity relative to artesunate (Plasmodium falciparum): 10-30 fold
C=C1C(=O)O[C@@H]2O[C@@]3(C)CC[C@H]4[C@H](C)CC[C@@H]1[C@@]24OO3 [artemisitene] | No activity was detected | –
C=C(C)[C@H]1CC=C(C)C(=O)C1 [(+)-carvone, (+)-Carvone] | has activity | Km [2, 4]: 650 µM; kcat [2, 4]: 0.86 s⁻¹
CCCCCC/C=C/C=O [2E-nonenal] | low activity; also recorded: No activity was detected | rate relative to the rate for artemisinic aldehyde ([1]; AaDBR2 substrate, FIG. 8): about 12%
C=C(C=O)[C@@H]1CC[C@@H](C)[C@@H]2CCC(C)=C[C@@H]21 [artemisinic aldehyde] | has activity | Km lower relative to 2-cyclohexen-1-one and (+)-carvone ([2]; Table 2 comparison): more than 30 fold; Km [2, 4]: 19 µM; kcat [2, 4]: 2.6 s⁻¹
